The subject of one assay is rat KCa2.2a channels. The note with it: read-out: EC50 on rat KCa2.2a (mean ± SD); cited from earlier work.
In assay [1] the target is T1, KCa2.3 channels (Homo sapiens, UniProt Q9UGI6). The assay is described as follows: Inside-out patch clamp, inhibition of KCa2.3 channels by negative modulator. Type of assay: cell-based. The note with it: read-out: IC50 for inhibition of KCa2.3 channels; 0.5 μM Ca2+; mean ± SD, n = 5.
Assay [2] relates to ET cells. The experiment in a line: Cilia length measurement in ET cells by immunostaining. Type of assay: cell-based, mouse.
The subject of assay [3] is ET cells. The assay is described as follows: Flow-induced cytosolic Ca2+ measurements (Fura-2AM) in ET cells. In kind it is cell-based, mouse. The note with it: 20 μM.
In assay [4] the target is T1, KCa2.3 channels. The assay is described as follows: Inside-out patch clamp, potentiation of human KCa2.3 channels expressed in HEK293 cells. Type of assay: cell-based.

Bridge positions count the residues as written; N and C are the ends. Ends that are not written are not given here.

Turning to `Cc1cc(C)n(-c2nc(Nc3ccc(Cl)cc3)c3ncn(C)c3n2)n1` [NS13001], the concentration giving a half-maximal response (EC50) in the assay on rat KCa2.2a channels is 2200 ± 500 nM.
Take `CC(=O)Nc1cccc2[nH]c(N[C@H](C)c3cccc(C(F)(F)F)c3)nc12` [AP14145]: at KCa2.3 channels [1], the IC50 turned out to be 970 ± 390 nM. In the assay on ET cells [2] (20 μM for two days, acetylated-α-tubulin staining, mean ± SD), this compound returned a cilia length of 2.8 ± 0.1 μm. Further, in the assay with ET cells [3], the “flow-induced peak Ca2+ values compared with control” value is given as “reduced”. In addition, the “flow-induced cytosolic Ca2+ transients compared with control” value in the assay on ET cells [3] (shear stress 5 dyn/cm2) is “much weaker Ca^2+ transients”.
As for “apamin (CNCKAPETALCARRCQQH-NH2; disulfide 1-11, 3-15; UniProt P01500 28-45, looked up)”, the “effect on cilia elongation by compound 4” value in the assay on ET cells [2] (apamin 50 nM with compound 4 20 μM, Arl13b marker) is on record as “completely abolished the elongating effect”.
`Cc1cc(NC2CCCCC2)nc(-n2nc(C)cc2C)n1` [CyPPA]: the “Emax on KCa2.3 channels (I / Imax (%))” value at KCa2.3 channels [4] (current at −90 mV normalized to that obtained at 10 μM Ca2+, mean ± SD) turned out to be 96 ± 10%. At KCa2.3 channels [4] (ratio of EC50 values, Table 1), the “selectivity for human KCa2.3 channels over rat KCa2.2a channels” value is given as ~ 2.7 fold. Moreover, the EC50 at KCa2.3 channels [4] (read-out: EC50 on human KCa2.3 (mean ± SD), inside-out patch, HEK293 cells, 0.15 μM Ca2+, currents at −90 mV, mean ± SD) was 2700 ± 600 nM; with rat KCa2.2a channels it was 7500 ± 1600 nM.

(Values after paper PMC9396613 (ACS chemical biology, 2022).)
